Read-outs that look alike come from different tables or passages of the source.
Assays:
[1] = test system: HCV replicon (strain 1b) in HUH-7 cells; test: HCV replicon FRET assay; type: cell-based, Hepatitis C virus
[2] = biological target: T1, HCV NS3/4A protease complex, BMS strain (UniProt P27958, species not given/STRAIN_BMS); test: FRET peptide assay to monitor HCV NS3/4A proteolytic activity (BMS strain); type: biochemical, Hepatitis C virus (genotype 1a)
T1 construct: other: NS3/4A BMS strain; activity range class; numeric values, unit not given; said of H77 and J4L6S; fused on or other part: A three-lysine solubilising tail at the C-terminus of NS4A; A His tag is implied by the pET21b vector and Ni-NTA purification; Both are printed for the H77 and J4L6S constructs and apply to BMS by inference
T1 sequence (P27958 1027-1657, change not shown, one chain of several): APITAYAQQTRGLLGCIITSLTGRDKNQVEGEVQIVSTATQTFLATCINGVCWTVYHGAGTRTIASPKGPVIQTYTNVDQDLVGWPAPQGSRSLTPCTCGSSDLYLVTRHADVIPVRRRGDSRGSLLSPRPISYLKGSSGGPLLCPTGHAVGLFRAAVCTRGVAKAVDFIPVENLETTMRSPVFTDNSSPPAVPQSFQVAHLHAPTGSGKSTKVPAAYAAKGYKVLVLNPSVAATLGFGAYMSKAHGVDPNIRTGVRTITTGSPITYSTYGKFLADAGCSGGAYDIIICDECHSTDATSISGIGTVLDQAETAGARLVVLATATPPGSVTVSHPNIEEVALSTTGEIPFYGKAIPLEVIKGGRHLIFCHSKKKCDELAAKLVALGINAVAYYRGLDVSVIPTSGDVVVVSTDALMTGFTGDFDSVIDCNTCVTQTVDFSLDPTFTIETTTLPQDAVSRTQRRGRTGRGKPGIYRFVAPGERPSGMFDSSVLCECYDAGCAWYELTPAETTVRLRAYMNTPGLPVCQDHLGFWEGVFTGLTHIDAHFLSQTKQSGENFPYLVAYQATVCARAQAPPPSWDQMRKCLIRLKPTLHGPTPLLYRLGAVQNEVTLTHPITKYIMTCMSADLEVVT
Method in brief: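 Purified recombinant NS3/4A complex from genotype 1a BMS strain, 2-3 nM final, with RET S1 EDANS/DABCYL depsipeptide substrate at 2 μM final in HEPES pH 7.5, NaCl, Triton, glycerol, βME. Cleavage followed in real time by fluorescence. For high-potency compounds: 50 μg/ml BSA added, protease lowered to 300 pM.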

[3] = Hepatitis C virus, Huh-7, read-out: HCV Pro Replicon (EC50), HCV replicon cell assay, numeric values, unit inferred
[4] = read-out: HCV Protease (IC50); NS3/4A BMS strain; numeric values, unit inferred
[5] = Hepatitis C virus, Huh-7, read-out: HCV Pro Replicon (EC50), HCV replicon cell assay, activity range class
[6] = read-out: HCV Protease (IC50); NS3/4A BMS strain; activity range class

| Structure (SMILES) | EC50 [1, 3] [nM] | IC50 [2, 4] [nM] | EC50 [1, 5] [nM] | IC50 [2, 6] [nM] | further results |
| --- | --- | --- | --- | --- | --- |
| C=C[C@@H]1C[C@]1(NC(=O)[C@@H]1C[C@@H](Oc2nccc3cc(OC)ccc23)CN1C(=O)[C@H](Nc1cccnc1)C(C)(C)C)C(=O)NS(=O)(=O)C1CC1 [Compound 13B, 3-methyl-N-3-pyridinyl-D-valyl-(4R)—N-((1R,2S)-1-((cyclopropylsulfonyl)carbamoyl)-2-vinylcyclopropyl)-4-((6-methoxy-1-isoquinolinyl)oxy)-L-prolinamide] | 5740 | 1200 | – | – | – |
| C=C[C@@H]1C[C@]1(NC(=O)[C@@H]1C[C@@H](Oc2nccc3cc(OC)ccc23)CN1C(=O)[C@H](Nc1ccccc1)C(C)(C)C)C(=O)NS(=O)(=O)C1CC1 [Compound 15B, 3-methyl-N-phenyl-D-valyl-(4R)—N-((1R,2S)-1-((cyclopropylsulfonyl)carbamoyl)-2-vinylcyclopropyl)-4-((6-methoxy-1-isoquinolinyl)oxy)-L-prolinamide] | 3380 | 1900 | – | – | – |
| C=C[C@@H]1C[C@]1(NC(=O)[C@@H]1C[C@@H](Oc2nc(N(C)C)cc3cc(OC)ccc23)CN1C(=O)C(Nc1cc(C)cc(C)n1)C(C)C)C(=O)NS(=O)(=O)C1CC1 (stereo partly drawn) [Compound 17, N-(4,6-dimethyl-2-pyridinyl)valyl-(4R)—N-((1R,2S)-1-((cyclopropylsulfonyl)carbamoyl)-2-vinylcyclopropyl)-4-((3-(dimethylamino)-6-methoxy-1-isoquinolinyl)oxy)-L-prolinamide] | – | – | 3 to 100 | 0.6 to 20 | – |
| C=C[C@@H]1C[C@]1(NC(=O)[C@@H]1C[C@@H](Oc2nc(OC)cc3cc(OC)ccc23)CN1C(=O)C(Nc1cc(C)cc(C)n1)C(C)C)C(=O)NS(=O)(=O)C1CC1 (stereo partly drawn) [Compound 21, N-(4,6-dimethyl-2-pyridinyl)valyl-(4R)—N-((1R,2S)-1-((cyclopropylsulfonyl)carbamoyl)-2-vinylcyclopropyl)-4-((3,6-dimethoxy-1-isoquinolinyl)oxy)-L-prolinamide] | – | – | 3 to 100 | 0.6 to 20 | – |
| C=C[C@@H]1C[C@]1(NC(=O)[C@@H]1C[C@@H](Oc2ncc(OC)c3ccc(Cl)cc23)CN1C(=O)C(Nc1cc(C)c([N+](=O)[O-])cn1)C(C)(C)C)C(=O)NS(=O)(=O)C1CC1 (stereo partly drawn) [Compound 23, 3-methyl-N-(4-methyl-5-nitro-2-pyridinyl)valyl-(4R)-4-((7-chloro-4-methoxy-1-isoquinolinyl)oxy)-N-((1R,2S)-1-((cyclopropylsulfonl)carbamoyl)-2-vinylcyclopropyl)-L-prolinamide] | – | – | 3 to 100 | 0.6 to 20 | – |
| C=C[C@@H]1C[C@]1(NC(=O)[C@@H]1C[C@@H](Oc2ncc(OC)c3ccc(Cl)cc23)CN1C(=O)C(Nc1cncc(C)c1)C(C)(C)C)C(=O)NS(=O)(=O)C1CC1 (stereo partly drawn) [Compound 25, 3-methyl-N-(5-methyl-3-pyridinyl)valyl-(4R)-4-((7-chloro-4-methoxy-1-isoquinolinyl)oxy)-N-((1R,2S)-1-((cyclopropylsulfonyl)carbamoyl)-2-vinylcyclopropyl)-L-prolinamide] | – | – | 3 to 100 | 0.6 to 20 | – |
| C=C[C@@H]1C[C@]1(NC(=O)[C@@H]1C[C@@H](Oc2ncc(OC)c3ccc(Cl)cc23)CN1C(=O)[C@@H](Nc1cncc(Cl)c1)C(C)(C)C)C(=O)NS(=O)(=O)C1CC1 [Compound 33, N-(5-chloro-3-pyridinyl)-3-methylvalyl-(4R)-4-((7-chloro-4-methoxy-1-isoquinolinyl)oxy)-N-((1R,2S)-1-((cyclopropylsulfonyl)carbamoyl)-2-vinylcyclopropyl)-L-prolinamide] | 8.19 | 2 | – | – | – |
| C=C[C@@H]1C[C@]1(NC(=O)[C@@H]1C[C@@H](Oc2nccc3cc(OC)ccc23)CN1C(=O)[C@@H](Nc1nc(CC)cs1)C(C)(C)C)C(=O)NS(=O)(=O)C1CC1 [Compound 35, N-(4-ethyl-1,3-thiazol-2-yl)-3-methyl-L-valyl-(4R)—N-((1R,2S)-1-((cyclopropylsulfonyl)carbamoyl)-2-vinylcyclopropyl)-4-((6-methoxy-1-isoquinolinyl)oxy)-L-prolinamide] | – | – | 3 to 100 | 0.6 to 20 | – |
| C=C[C@@H]1C[C@]1(NC(=O)[C@@H]1C[C@@H](Oc2nccc3cc(OC)ccc23)CN1C(=O)[C@@H](NC1=NCCCS1)C(C)(C)C)C(=O)NS(=O)(=O)C1CC1 [Compound 36, N-(5,6-dihydro-4H-1,3-thiazin-2-yl)-3-methyl-L-valyl-(4R)—N-((1R,2S)-1-((cyclopropylsulfonyl)carbamoyl)-2-vinylcyclopropyl)-4-((6-methoxy-1-isoquinolinyl)oxy)-L-prolinamide] | 1420 | 73 | – | – | – |
| C=C[C@@H]1C[C@]1(NC(=O)[C@@H]1C[C@@H](Oc2nc(-c3ccc(OC(F)(F)F)cc3)cc3cc(OC)ccc23)CN1C(=O)[C@@H](NC1=NCCCS1)C(C)(C)C)C(=O)NS(=O)(=O)C1CC1 [Compound 37, N-(5,6-dihydro-4H-1,3-thiazin-2-yl)-3-methyl-L-valyl-(4R)—N-((1R,2S)-1-((cyclopropylsulfonyl)carbamoyl)-2-vinylcyclopropyl)-4-((6-methoxy-3-(4-(trifluoromethoxy)phenyl)-1-isoquinolinyl)oxy)-L-prolinamide] | – | – | 3 to 100 | 0.6 to 20 | – |
| C=CC1CC1(NC(=O)C1CC(Oc2ncc(OC)c3ccc(Cl)cc23)CN1C(=O)C(Nc1cccc(F)c1)C(C)(C)C)C(=O)NS(=O)(=O)C1CC1 (centres unmarked) [Compound 200B] | 195 | 160 | – | – | – |
| C=C[C@@H]1C[C@]1(NC(=O)[C@@H]1C[C@@H](Oc2ncc(OC)c3ccc(Cl)cc23)CN1C(=O)C(Nc1cccc(C(=O)NC)c1)C(C)(C)C)C(=O)NS(=O)(=O)C1CC1 (some centres unmarked) [Compound 202A] | – | – | 3 to 100 | 0.6 to 20 | – |
| C=C[C@@H]1C[C@]1(NC(=O)[C@@H]1C[C@@H](Oc2ncc(OC)c3ccc(Cl)cc23)CN1C(=O)C(Nc1cccc(C#N)c1)C(C)(C)C)C(=O)NS(=O)(=O)C1CC1 (some centres unmarked) [Compound 203A] | 1.54 | 4 | – | – | – |
| C=C[C@@H]1C[C@]1(NC(=O)[C@@H]1C[C@@H](Oc2ncc(OC)c3ccc(Cl)cc23)CN1C(=O)[C@@H](Nc1ccc(S(N)(=O)=O)cc1)C(C)(C)C)C(=O)NS(=O)(=O)C1CC1 [Compound 215A, 3-methyl-N-(4-sulfamoylphenyl)-L-valyl-(4R)-4-((7-chloro-4-methoxy-1-isoquinolinyl)oxy)-N-((1R,2S)-1-((cyclopropylsulfonyl)carbamoyl)-2-vinylcyclopropyl)-L-prolinamide] | – | – | 3 to 100 | 0.6 to 20 | – |
| C=C[C@@H]1C[C@]1(NC(=O)[C@@H]1C[C@@H](Oc2ncc(OC)c3ccc(Cl)cc23)CN1C(=O)[C@H](Nc1ccc(S(N)(=O)=O)cc1)C(C)(C)C)C(=O)NS(=O)(=O)C1CC1 [Compound 215B, 3-methyl-N-(4-sulfamoylphenyl)-D-valyl-(4R)-4-((7-chloro-4-methoxy-1-isoquinolinyl)oxy)-N-((1R,2S)-1-((cyclopropylsulfonyl)carbamoyl)-2-vinylcyclopropyl)-L-prolinamide] | 5490 | 830 | – | – | – |
| C=C[C@@H]1C[C@]1(NC(=O)[C@@H]1C[C@@H](Oc2ncc(OC)c3ccc(Cl)cc23)CN1C(=O)[C@@H](Nc1ccc(C(=O)NC(C)(C)c2ccccc2)cc1)C(C)(C)C)C(=O)NS(=O)(=O)C1CC1 [Compound 222A, 3-methyl-N-(4-((1-methyl-1-phenylethyl)carbamoyl)phenyl)-L-valyl-(4R)-4-((7-chloro-4-methoxy-1-isoquinolinyl)oxy)-N-((1R2S)-1-((cyclopropylsulfonl)carbamoyl)-2-vinylcyclopropyl)-L-prolinamide] | – | – | – | – | EC50 ([1]; HCV replicon cell assay, activity range class, read-out: HCV Pro Replicon (EC50)): 3 to 100 nM; IC50 ([2]; NS3/4A BMS strain; activity range class; read-out: HCV Protease (IC50)): 0.6 to 20 nM |
| C=C[C@@H]1C[C@]1(NC(=O)[C@@H]1C[C@@H](Oc2ncc(OC)c3ccc(Cl)cc23)CN1C(=O)[C@H](CC)Nc1nsnc1OCC)C(=O)NS(=O)(=O)C1CC1 [Compound 233A, (4R)-4-((7-chloro-4-methoxy-1-isoquinolinyl)oxy)-N-((1R,2S)-1-((cyclopropylsulfonyl)carbamoyl)-2-vinylcyclopropyl)-1-((2S)-2-((4-ethoxy-1,2,5-thiadiazol-3-yl)amino)butanoyl)-L-prolinamide] | – | – | 100 to 1000 | 20 to 200 | – |
| C=C[C@@H]1C[C@]1(NC(=O)[C@@H]1C[C@@H](Oc2ncc(OC)c3ccc(Cl)cc23)CN1C(=O)C(C)Nc1n[s+]([O-])nc1OC)C(=O)NS(=O)(=O)C1CC1 (some centres unmarked) [Compound 236] | – | – | > 1000 | > 200 | – |
| C=C[C@@H]1C[C@]1(NC(=O)[C@@H]1C[C@@H](Oc2ncc(OC)c3ccc(Cl)cc23)CN1C(=O)C(C)Nc1n[s+]([O-])nc1OCC)C(=O)NS(=O)(=O)C1CC1 (some centres unmarked) [Compound 237] | – | – | > 1000 | > 200 | – |
| C=C[C@@H]1C[C@]1(NC(=O)[C@@H]1C[C@@H](Oc2ncc(OC)c3ccc(Cl)cc23)CN1C(=O)C(C)Nc1nsnc1OC)C(=O)NS(=O)(=O)C1CC1 (some centres unmarked) [Compound 238] | – | – | 100 to 1000 | 20 to 200 | – |
| C=C[C@@H]1C[C@]1(NC(=O)[C@@H]1C[C@@H](Oc2ncc(OC)c3ccc(Cl)cc23)CN1C(=O)C(C)Nc1nsnc1OCC)C(=O)NS(=O)(=O)C1CC1 (some centres unmarked) [Compound 239] | – | – | 100 to 1000 | > 200 | – |
| C=C[C@@H]1C[C@]1(NC(=O)[C@@H]1C[C@@H](Oc2ncc(OC)c3ccc(Cl)cc23)CN1C(=O)C(CC)Nc1nsnc1OC)C(=O)NS(=O)(=O)C1CC1 (some centres unmarked) [Compound 240] | – | – | 100 to 1000 | 0.6 to 20 | – |

From US7772180B2, “Hepatitis C virus inhibitors” (Bristol-Myers Squibb Company, priority 2006, dated 2010)
